Reference: article PMC10051969, “Exploring Probenecid Derived 1,3,4-Oxadiazole-Phthalimide Hybrid as α-Amylase Inhibitor: Synthesis, Structural Investigation, and Molecular Modeling” (Pharmaceuticals, 2023)
In brackets after ≈: the same amount, converted by molar mass.

Target: α-amylase
Assay: DNS colorimetric α-amylase assay, starch substrate, absorbance at […] nm
Assay type: biochemical

## CCCN(CCC)S(=O)(=O)c1ccc(-c2nnc(SCN3C(=O)c4ccccc4C3=O)o2)cc1 [PESMP, 4-(5-((1,3-Dioxoisoindolin-2-yl)methylthio)-1,3,4-oxadiazol-2-yl)-N,N-dipropylbenzene-sulfonamide]
  IC50 Value: 10.60 ± 0.16 µg/mL (≈ 21.2 µM)
